Source: patent publication US11999746B2, “Compounds” (GlaxoSmithKline Intellectual Property Development Limited, priority 2014, dated 2024)

Assays:
[1] = target: T1, Lp-PLA2 in human plasma (Homo sapiens, UniProt Q13093); experiment: (3b) Lp-PLA2 human plasma alternative Thio-PAF assay; assay type: biochemical; details: (3b) alternative Thio-PAF assay, pooled human plasma; Examples of 266-412 were tested here; read-out: pIC50 in the Lp-PLA2 human plasma assay (converted)
T1 construct: from tissue; host or cells: pooled human plasma
T1 sequence (Q13093 22-441): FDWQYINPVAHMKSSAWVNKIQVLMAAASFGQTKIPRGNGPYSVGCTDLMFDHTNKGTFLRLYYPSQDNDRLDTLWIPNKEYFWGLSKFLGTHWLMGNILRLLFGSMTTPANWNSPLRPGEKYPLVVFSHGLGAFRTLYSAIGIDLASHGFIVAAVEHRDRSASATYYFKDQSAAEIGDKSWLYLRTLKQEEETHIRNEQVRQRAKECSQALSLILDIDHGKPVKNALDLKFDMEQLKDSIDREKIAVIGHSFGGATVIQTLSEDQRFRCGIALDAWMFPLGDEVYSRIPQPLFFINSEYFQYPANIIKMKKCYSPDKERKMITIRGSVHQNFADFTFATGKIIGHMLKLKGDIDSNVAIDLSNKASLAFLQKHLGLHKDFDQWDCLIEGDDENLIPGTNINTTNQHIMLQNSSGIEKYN
In short: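 Pooled human plasma was preincubated with compound for 15 min at RT. Substrate solution (2 mM 2-thio-PAF, 52 μM CPM, 2.5 mM NEM in 50 mM HEPES pH 7.4, 150 mM NaCl, 1 mM CHAPS; pre-addition concentrations) was added, and the reaction was quenched with 5% TFA after 3 min. Fluorescence was read at ex 380/em 485 nm and fitted to give pIC50.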

[2] = target: T2, recombinant human Lp-PLA2 (Homo sapiens, UniProt Q13093); experiment: (1b) hrThioPAF assay, recombinant human Lp-PLA2; assay type: biochemical; details: Examples 266-412 were tested here, one experiment or average of multiple experiments, read-out: rhLp-PLA2 (pIC50) (converted)
T2 sequence (Q13093 22-441): T1 sequence (Q13093 22-441)
In short: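 Fluorogenic assay: 20 pM rhLp-PLA2 in 50 mM HEPES pH 7.4, 150 mM NaCl, 1 mM CHAPS with 1:3 serially diluted compounds; substrate mix of 40 μM 2-thio-PAF, 40 μM CPM, 400 μM NEM (pre-addition levels). 20 min at 25 °C in the dark; fluorescence ex 380/em 485 nm, pIC50 by curve fitting.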

| SMILES | IC50 [1] [nM] | IC50 [2] [nM] |
| --- | --- | --- |
| N#Cc1cc(COc2cc3n(c(=O)n2)CC2CS(=O)(=O)CCN32)ccc1F (stereo not shown) [Example E367, 5-(((2,2-Dioxido-9-oxo-1,3,4,9,11,11a-hexahydropyrimido[6′,1′:2,3]imidazo[5,1-c][1,4]thiazin-7-yl)oxy)methyl)-2-fluorobenzonitrile] | ≤ 100 | ≤ 10000 |
| O=c1nc(OCc2cc(F)c(Oc3ccnc(C(F)(F)F)c3)c(F)c2)cc2n1CC1CSCCN21 (stereo not shown) [Example E368, 7-((3,5-Difluoro-4-((2-(trifluoromethyl)pyridin-4-yl)oxy)benzyl)oxy) 3,4,11,11a-tetrahydropyrimido[6′,1′:2,3]imidazo[5,1-c][1,4]thiazin-9(1H)-one] | ≤ 100 | ≤ 1 |
| O=c1nc(OCc2cc(F)c(Oc3ccnc(C(F)(F)F)c3)c(F)c2)cc2n1CC1C[S+]([O-])CCN21 (stereo not shown) [Example E369, 7-((3,5-Difluoro-4-((2-(trifluoromethyl)pyridin-4-yl)oxy)benzyl)oxy)-3,4,11,11a-tetrahydropyrimido[6′,1′:2,3]imidazo[5,1-c][1,4]thiazin-9(1H)-one 2-oxide] | ≤ 100 | ≤ 10000 |
| O=c1nc(OCc2cc(F)c(Oc3ccnc(C(F)(F)F)c3)c(F)c2)cc2n1CC1CS(=O)(=O)CCN21 (stereo not shown) [Example E370, 7-((3,5-Difluoro-4-((2-(trifluoromethyl)pyridin-4-yl)oxy)benzyl)oxy)-3,4,11,11a-tetrahydropyrimido[6′,1′:2,3]imidazo[5,1-c][1,4]thiazin-9(1H)-one-2,2-dioxide] | ≤ 100 | ≤ 10000 |
| O=c1nc(OCc2cc(F)c(Oc3cncc(C(F)(F)F)c3)c(F)c2)cc2n1CC1CSCCN21 (stereo not shown) [Example E371, 7-((3,5-Difluoro-4-((5-(trifluoromethyl)pyridin-3-yl)oxy)benzyl)oxy)-3,4,11,11a-tetrahydropyrimido[6′,1′:2,3]imidazo[5,1-c][1,4]thiazin-9(1H)-one] | ≤ 100 | ≤ 1 |
| O=c1nc(OCc2cc(F)c(Oc3cncc(C(F)(F)F)c3)c(F)c2)cc2n1CC1C[S+]([O-])CCN21 (stereo not shown) [Example E372, 7-((3,5-Difluoro-4-((5-(trifluoromethyl)pyridin-3-yl)oxy)benzyl)oxy)-3,4,11,11a-tetrahydropyrimido[6′,1′:2,3]imidazo[5,1-c][1,4]thiazin-9(1H)-one 2-oxide] | ≤ 100 | ≤ 1 |
| O=c1nc(OCc2cc(F)c(Oc3cncc(C(F)(F)F)c3)c(F)c2)cc2n1CC1CS(=O)(=O)CCN21 (stereo not shown) [Example E373, 7-((3,5-Difluoro-4-((5-(trifluoromethyl)pyridin-3-yl)oxy)benzyl)oxy)-3,4,11,11a-tetrahydropyrimido[6′,1′:2,3]imidazo[5,1-c][1,4]thiazin-9(1H)-one 2,2-dioxide] | ≤ 100 | ≤ 10000 |
| N#Cc1cc(COc2cc3n(c(=O)n2)C[C@@H]2C[C@H](O)CN32)ccc1F [Example E382, 2-Fluoro-5-((((7S,8aS)-7-hydroxy-1-oxo-1,6,7,8,8a,9-hexahydropyrrolo[1′,2′:3,4]imidazo[1,2-c]pyrimidin-3-yl)oxy)methyl)benzonitrile] | ≤ 100 | ≤ 10000 |
| O=c1nc(OCc2cc(F)c(Oc3ccnc(C(F)(F)F)c3)c(F)c2)cc2n1C[C@@H]1C[C@H](O)CN21 [Example E383, (7S,8aS)-3-((3,5-Difluoro-4-((2-(trifluoromethyl)pyridin-4-yl)oxy)benzyl)oxy)-7-hydroxy-7,8,8a,9-tetrahydropyrrolo[1′,2′:3,4]imidazo[1,2-c]pyrimidin-1(6H)-one] | ≤ 100 | ≤ 1 |
| O=c1nc(OCc2cc(F)c(Oc3ccnc(C(F)(F)F)c3)c(F)c2)cc2n1C[C@H]1C[C@@H](O)CN21 [Example E384, (7R,8aR)-3-((3,5-Difluoro-4-((2-(trifluoromethyl)pyridin-4-yl)oxy)benzyl)oxy)-7-hydroxy-7,8,8a,9-tetrahydropyrrolo[1′,2′:3,4]imidazo[1,2-c]pyrimidin-1(6H)-one] | ≤ 100 | ≤ 10000 |
| N#Cc1cc(COc2cc3n(c(=O)n2)C[C@H]2C[C@H](N)CN32)ccc1F [Example E386, 5-((((7S,8aR)-7-Amino-1-oxo-1,6,7,8,8a,9-hexahydropyrrolo[1,2′:3,4]imidazo[1,2-c]pyrimidin-3-yl)oxy)methyl)-2-fluorobenzonitrile] | ≤ 100 | ≤ 10000 |
| N[C@@H]1C[C@@H]2Cn3c(cc(OCc4cc(F)c(Oc5ccnc(C(F)(F)F)c5)c(F)c4)nc3=O)N2C1 [Example E387, (7R,8aR)-7-Amino-3-((3,5-difluoro-4-((2-(trifluoromethyl)pyridin-4-yl)oxy)benzyl)oxy)-7,8,8a,9-tetrahydropyrrolo[1′,2′:3,4]imidazo[1,2-c]pyrimidin-1(6H)-one] | ≤ 100 | ≤ 10000 |
| N[C@H]1C[C@@H]2Cn3c(cc(OCc4cc(F)c(Oc5ccnc(C(F)(F)F)c5)c(F)c4)nc3=O)N2C1 [Example E388, (7S,8aR)-7-Amino-3-((3,5-difluoro-4-((2-(trifluoromethyl)pyridin-4-yl)oxy)benzyl)oxy)-7,8,8a,9-tetrahydropyrrolo[1′,2′:3,4]imidazo[1,2-c]pyrimidin-1(6H)-one] | ≤ 100 | ≤ 1 |
| N[C@H]1C[C@H]2Cn3c(cc(OCc4cc(F)c(Oc5ccnc(C(F)(F)F)c5)c(F)c4)nc3=O)N2C1 [Example E390, (7S,8aS)-7-Amino-3-((3,5-difluoro-4-((2-(trifluoromethyl)pyridin-4-yl)oxy)benzyl)oxy)-7,8,8a,9-tetrahydropyrrolo[1′,2′:3,4]imidazo[1,2-c]pyrimidin-1(6H)-one] | ≤ 100 | ≤ 10000 |
| N#Cc1cc(COc2cc3n(c(=O)n2)C[C@@H]2C[C@H](N)CN32)ccc1F [Example E391, 5-((((7S,8aS)-7-Amino-1-oxo-1,6,7,8,8a,9-hexahydropyrrolo[1′,2′:3,4]imidazo[1,2-c]pyrimidin-3-yl)oxy)methyl)-2-fluorobenzonitrile] | ≤ 100 | ≤ 10000 |
| N[C@@H]1C[C@H]2Cn3c(cc(OCc4cc(F)c(Oc5ccnc(C(F)(F)F)c5)c(F)c4)nc3=O)N2C1 [Example E392, (7R,8aS)-7-Amino-3-((3,5-difluoro-4-((2-(trifluoromethyl)pyridin-4-yl)oxy)benzyl)oxy)-7,8,8a,9-tetrahydropyrrolo[1′,2′:3,4]imidazo[1,2-c]pyrimidin-1(6H)-one] | ≤ 100 | ≤ 10000 |
| Cc1ccc(Oc2c(F)cc(COc3cc4n(c(=O)n3)CC3(COC3)N4)cc2F)cn1 [Example E394, 7-((3,5-Difluoro-4-((6-methylpyridin-3-yl)oxy)benzyl)oxy)-1H-spiro[imidazo[1,2-c]pyrimidine-2,3′-oxetan]-5(3H)-one] | ≤ 100 | ≤ 10000 |
| O=c1nc(OCc2cc(F)c(Oc3ccnc(C(F)(F)F)c3)c(F)c2)cc2n1CC1(COC1)N2 [Example E395, 7-((3,5-difluoro-4-((2-(trifluoromethyl)pyridin-4-yl)oxy)benzyl)oxy)-1H-spiro[imidazo[1,2-c]pyrimidine-2,3′-oxetan]-5(3H)-one] | ≤ 100 | 0.794 |
| O=c1nc(OCc2ccc(F)c(F)c2)cc2n1CC1(COC1)N2 [Example E396, 7-((3,4-difluorobenzyl)oxy)-1H-spiro[imidazo[1,2-c]pyrimidine-2,3′-oxetan]-5(3H)-one] | ≤ 100 | ≤ 10000 |
| CN1c2cc(OCc3cc(F)c(Oc4cnn(C)c4)c(F)c3)nc(=O)n2CC12COC2 [Example E397, 7-((3,5-Difluoro-4-((1-methyl-1H-pyrazol-4-yl)oxy)benzyl)oxy)-1-methyl-1H-spiro[imidazo[1,2-c]pyrimidine-2,3′-oxetan]-5(3H)-one] | ≤ 100 | ≤ 10000 |
